Measurements as given in article PMC6269819, “Evaluation of the Biological Activity of Naturally Occurring 5,8-Dihydroxycoumarin” (Molecules, 2013).
“And” between values parts separate entries of the source, which are not always exact repeats. Equal entries are not always repeated. Marks after values point to notes of the source that are not given here.

Legend:
[1] = tested on: Wistar rat bone marrow cells; assay: Chromosome aberration in vivo assay in rat bone marrow
Source text: (§1) Male albino Wistar rats aged 8–10 weeks and having body weight of 200–220 g, were used in the present study. The animals were supplied by the Animal Facility of the Department of Immunology, State Research Institute Center for Innovative Medicine. Ethical approval was given by the Committee of the Lithuanian Animal Care and Use. Prior to the start of the study, the animals were acclimatized for 7 days. They were housed under conditions of constant temperature, humidity and a light/dark cycle of 12 h/12 h with free access to standard commercial pellet diet and drinking water. The animals were randomly distributed into 11 experimental groups of six rats each.
(§2) We used a mixture of dimethylsulfoxide (DMSO) and sunflower oil (1:2) as the vehicle for 5,8-DHC (5,8-DHC was dissolved in DMSO and adjusted to the desired dose with sunflower oil immediately before administration). For the acute treatment, the animals received single intraperitoneal (i.p.) injections of 10 or 20 mg/kg of 5,8-DHC in 1 mL volume per 100 g body weight (b.w.). The negative control group comprised animals, given a single i.p. injection of vehicle (1 mL/100 g b.w.) and the positive control group, given cyclophosphamide (CP, 30 mg/kg adjusted in 0.5 mL/100 g b.w. in sterile physiological saline). A commercial form of cyclophosphamide was used (‘Endoxan’, ASTA Medica AG, Frankfurt, Germany). Blank controls comprised untreated animals. For the repeated treatment, 5,8-DHC (10 or 20 mg/kg) or vehicle was administered via gavage (1 mL/100 g b.w.) once a day for 3 consecutive days. Animals were sacrificed 24 h or 48 h after the last dose administration. Colchicine was applied i.p. at a dose of 2 mg/kg b.w. in 1 mL volume 90 min before sacrifice. Both femurs were dissected from each animal and used to obtain bone marrow preparations for the analysis of chromosome aberrations and micronucleus.
Bone marrow cells were flushed from the femora with 0.55% potassium chloride hypotonic solution, incubated for 25 min at 37 °C and then centrifuged at 150 × g for 8 min. Cells were fixed in methanol-glacial acetic acid (3:1). Slides were prepared by a flame-drying procedure and then stained with 5% Giemsa stain. Slides were coded and scored blind by the single scorer at a magnification of 1500× (Nikon ECLIPSE E200, Tokyo, Japan). Only well-spread metaphases with 42 ± 1 chromosomes were used for the analysis. The frequencies of CAs were estimated in 100 metaphases per animal. Aberrations were recorded as individual types according to J.R. Savage’s classification but for convenience were grouped as chromatid breaks (ctb), chromatid exchanges (cte), chromosome breaks (csb) and chromosome exchanges (cse). Gaps were counted but not included into statistical analysis.

[2] = Rapeseed oil oxidation in Oxipress apparatus; conditions: for protection factor of rapeseed oil: 120 °C, oxygen 5 bars
Method: The samples were prepared by mixing rapeseed oil with 0.025, 0.05 and 0.1% of DHC. Five g of oil were placed in a reactor tube and thermostated at 120 °C under oxygen atmosphere (5 bars) in Oxipress apparatus (Mikrolab, Aarhus). Pressure changes which occur due to the absorption of oxygen consumed for oil oxidation were recorded. The protection factor (PF) values of rapeseed oil in case of using 5,8-DHC were calculated by the following formula: PF = IPX/IPK(3) where IPX is induction period of sample with additive (h); IPK is induction period of sample without additive (h).

[3] = ABTS•+ radical cation decolorization assay; conditions: 16 min reaction
Method: The experiments were carried out using a slightly modified 2,2’-azinobis (3-ethylbenzothiazoline-6-sulfonic acid) diammonium salt (ABTS, Sigma-Aldrich Chemie, Steinheim, Germany) decolorization assay. Stock solution of ABTS (2 mM) was prepared by dissolving in 50 mL of phosphate buffered saline (PBS) obtained by dissolving 0.27 g of KH2PO4 (Jansen Chimica, Beerse, Belgium), 1.42 g of Na2HPO4, 8.18 g of NaCl, and 0.15 g of KCl (Merck, Darmstadt, Germany) in 1 L of distilled water. The pH was adjusted to 7.4 using NaOH solution. The ABTS^•+ was produced by reacting 50 mL of ABTS stock solution with 200 μL of K2S2O8 solution. The ABTS^•+ solution was diluted with PBS before measurements to obtain the absorbance of 0.800 ± 0.030 at 734 nm. 5,8-DHC was dissolved in PBS at the concentrations of 0.0025, 0.005, 0.01, 0.025 and 0.05% before the reaction. A 3 mL aliquot of ABTS^•+ solution was mixed with 30 μL of 5,8-DHC solution in the 1 cm path length quartz cuvette. The absorbance was read at ambient temperature after 16 min. PBS solution was used as a blank. All determinations were carried out in triplicate. Radical scavenging capacity was expressed as in DPPH^• scavenging assay.

[4] = Signs of systemic toxicity and mortality in treated rats
[5] = tested on: Wistar rat bone marrow cells; assay: Micronucleus in vivo assay in rat bone marrow
Source text: as §1, §2
The bone marrow MN assay was conducted according to the standard procedure. Ends of the femura were cut off and the bone marrow was washed out with 2 mL of heat-inactivated foetal calf serum (Biochrom AG, Berlin, Germany), mixed thoroughly to obtain a fine suspension and centrifuged for 5 min at 150 × g. The supernatant was discarded and the cell pellet was carefully re-suspended. At least two smears per animal were prepared and allowed to air dry prior to fixation with methanol. The slides were stained in May-Grünwald solution followed by Giemsa (both Merck), coded and scored blind by the same scorer under magnification of 1000× (Jenaval, Zeiss, Jena, Germany). Micronucleated polychromatic erythrocyte (MNPCE) frequencies were based on the observation of 2,000 immature polychromatic erythrocytes (PCEs). Bone marrow toxicity was monitored by a decrease of PCE to total erythrocytes (e.g., PCEs+NCEs, normochromatic erythrocytes). At least 1,000 bone marrow erythrocytes per animal were analysed.

[6] = repeated gavage 3 × 10 mg/kg b.w., sacrifice 48 h
[7] = repeated gavage 3 × 20 mg/kg b.w., sacrifice 48 h
[8] = single i.p. 10 mg/kg b.w., sacrifice 24 h
[9] = single i.p. 10 mg/kg b.w., sacrifice 48 h
[10] = single i.p. 20 mg/kg b.w., sacrifice 24 h
[11] = single i.p. 20 mg/kg b.w., sacrifice 48 h

With O=c1ccc2c(O)ccc(O)c2o1 [5,8-DHC, 5,8-Dihydroxycoumarin] as the compound, how does the “increase of CAs compared with vehicle controls” value ([1]; all 5,8-DHC treated animals) read?
Its value is “No increase of CAs”.

And the “Aberrant metaphases (%± S.E.M.)” value [1, 6]?
The value was 1.17 ± 0.17%.

And the “Aberrant metaphases (%± S.E.M.)” value [1, 7]?
The value was 2.43 ± 0.37%.

And the “Aberrant metaphases (%± S.E.M.)” value [1, 8]?
Its value is 2.33 ± 0.49%.

What about the “Aberrant metaphases (%± S.E.M.)” value [1, 9] of the same compound?
Its value is 1.67 ± 0.56%.

What about the “Aberrant metaphases (%± S.E.M.)” value [1, 10] of the same compound?
Its value is 1.00 ± 0.36%.

And the “Aberrant metaphases (%± S.E.M.)” value [1, 11]?
The value was 2.60 ± 0.68%.

What about the “rapeseed oil autooxidation induction period (IP)” value ([2]; 0.025 % 5,8-DHC) of the same compound?
Its value is 3.81 h.

What about the “protection factor of rapeseed oil” value ([2]; 0.025% 5,8-DHC) of the same compound?
The value was 1.69.

And the “rapeseed oil autooxidation induction period (IP)” value ([2]; 0.050 % 5,8-DHC)?
Its value is 5.46 h.

What about the “protection factor of rapeseed oil” value ([2]; 0.05% 5,8-DHC) of the same compound?
Its value is 2.43.

What about the “rapeseed oil autooxidation induction period (IP)” value ([2]; 0.100 % 5,8-DHC) of the same compound?
The value was 8.46 h.

What about the “IC50 in ABTS•+ reaction” value [3] of the same compound?
Its value is 0.028%.

And the “signs of systemic toxicity” value ([4]; 20 mg/kg b.w., at 2–3 h after dose administration)?
Its value is “sluggishness was observed in all rats”.

What about the “time to death after administration” value ([4]; i.p. injection 100 mg/kg) of the same compound?
The value was 3 to 4 h.

And the toxicity and mortality ([4]; i.p. injection 100 mg/kg)?
The toxicity and mortality was “sluggishness and death of all treated animals”.

What about the “signs of systemic toxicity” value ([4]; repeated treatment with 10 mg/kg b.w., since second dose administration) of the same compound?
The value was “sluggishness”.

And the “cytotoxicity (decline of the proportion of PCEs to total erythrocytes)” value ([5]; rat, in vivo)?
Its value is “no signs of 5,8-DHC cytotoxicity”.

And the “effect on the frequency of MNPCEs” value ([5]; repeated gavage)?
The value was “no obvious effect”.

What about the “MNPCE (%± S.E.M.)” value [5, 6] of the same compound?
Its value is 0.24 ± 0.05%.

And the “PCE (%± S.E.M.)” value [5, 6]?
The value was 31.7 ± 4.0%.

And the “MNPCE (%± S.E.M.)” value [5, 7]?
The value was 0.23 ± 0.05%.

And the “PCE (%± S.E.M.)” value [5, 7]?
Its value is 45.5 ± 3.5%.

What about the “MNPCE (%± S.E.M.)” value [5, 8] of the same compound?
Its value is 0.56 ± 0.08 ^a %.

What about the “PCE (%± S.E.M.)” value [5, 8] of the same compound?
The value was 32.1 ± 1.9%.

What about the “MNPCE (%± S.E.M.)” value [5, 9] of the same compound?
The value was 0.30 ± 0.06%.

And the “PCE (%± S.E.M.)” value [5, 9]?
The value was 31.8 ± 5.6%.

What about the “PCE (%± S.E.M.)” value [5, 10] of the same compound?
The value was 36.6 ± 2.8%.

And the “MNPCE (%± S.E.M.)” value ([5]; single i.p. 20 mg/kg b.w., sacrifice 24 h, 20 mg/kg)?
Its value is 0.63% and 0.63 ± 0.04 ^a %.

What about the “PCE (%± S.E.M.)” value [5, 11] of the same compound?
Its value is 26.6 ± 5.0%.

And the “MNPCE (%± S.E.M.)” value ([5]; single i.p. 20 mg/kg b.w., sacrifice 48 h, 20 mg/kg)?
Its value is 0.59% and 0.59 ± 0.14^a %.
